Consider 22 molecules from patent US10829473B2, “Modulators of the cystic fibrosis transmembrane conductance regulator protein and methods of use” (AbbVie Overseas S.Á.R.L., priority 2017, dated 2020).

pEC50: −log10 of the molar value. Where two headings read alike, the source gives them in different places.

The target in the assay is T1, F508delCFTR (Homo sapiens, UniProt P13569, DEL508-508).
T1 construct: expressed in transfected cells; host or cells: CFBE41o- human lung derived epithelial cells (CFBE41o-F508delCFTR-HRP), doxycycline-inducible
T1 sequence (P13569 with tags, fused parts or gaps DEL508-508): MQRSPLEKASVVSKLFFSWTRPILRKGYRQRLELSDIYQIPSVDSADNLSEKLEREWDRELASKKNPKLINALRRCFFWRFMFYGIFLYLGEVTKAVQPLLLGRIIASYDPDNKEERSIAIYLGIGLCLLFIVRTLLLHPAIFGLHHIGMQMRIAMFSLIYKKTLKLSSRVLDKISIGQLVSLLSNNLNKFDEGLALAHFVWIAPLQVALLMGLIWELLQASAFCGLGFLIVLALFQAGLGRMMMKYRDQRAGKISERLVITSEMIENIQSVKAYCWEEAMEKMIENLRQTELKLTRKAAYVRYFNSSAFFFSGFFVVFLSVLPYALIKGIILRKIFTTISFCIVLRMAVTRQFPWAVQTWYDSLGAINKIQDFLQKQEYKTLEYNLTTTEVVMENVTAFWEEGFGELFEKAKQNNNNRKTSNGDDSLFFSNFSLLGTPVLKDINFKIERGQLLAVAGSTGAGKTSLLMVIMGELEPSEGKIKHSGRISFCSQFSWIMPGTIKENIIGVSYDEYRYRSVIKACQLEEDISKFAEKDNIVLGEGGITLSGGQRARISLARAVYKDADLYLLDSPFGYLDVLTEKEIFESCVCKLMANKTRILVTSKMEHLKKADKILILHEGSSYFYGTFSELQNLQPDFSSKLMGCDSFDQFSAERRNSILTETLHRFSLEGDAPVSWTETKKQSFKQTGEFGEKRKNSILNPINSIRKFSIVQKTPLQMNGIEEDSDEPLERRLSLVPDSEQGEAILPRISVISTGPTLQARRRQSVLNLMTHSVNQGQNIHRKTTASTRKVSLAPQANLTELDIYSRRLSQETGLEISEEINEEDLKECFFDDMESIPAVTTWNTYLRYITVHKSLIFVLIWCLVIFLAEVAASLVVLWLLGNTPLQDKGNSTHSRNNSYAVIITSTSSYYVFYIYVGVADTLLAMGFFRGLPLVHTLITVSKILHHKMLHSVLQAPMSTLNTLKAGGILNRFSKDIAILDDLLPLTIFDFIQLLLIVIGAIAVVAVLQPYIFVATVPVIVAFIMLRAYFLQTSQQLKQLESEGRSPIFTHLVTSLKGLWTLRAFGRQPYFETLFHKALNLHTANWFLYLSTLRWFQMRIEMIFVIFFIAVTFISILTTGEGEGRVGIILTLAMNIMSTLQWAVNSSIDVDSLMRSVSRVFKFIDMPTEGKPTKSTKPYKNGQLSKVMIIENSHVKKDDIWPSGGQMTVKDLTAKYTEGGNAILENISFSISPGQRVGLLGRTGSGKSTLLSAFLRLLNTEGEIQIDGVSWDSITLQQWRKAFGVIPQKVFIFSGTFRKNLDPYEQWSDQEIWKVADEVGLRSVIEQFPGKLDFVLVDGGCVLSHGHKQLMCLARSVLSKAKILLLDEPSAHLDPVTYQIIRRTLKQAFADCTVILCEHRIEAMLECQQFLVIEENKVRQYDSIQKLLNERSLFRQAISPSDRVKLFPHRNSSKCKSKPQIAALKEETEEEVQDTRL
Kind of assay: Cell Surface Expression-Horse Radish Peroxidase (CSE-HRP) Assay.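 As to EC50 (with co-corrector): co-corrector chromenyl benzoic acid corrector at 2 or 3 µM.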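 As to Maximum % activity (without co-corrector): % of on-plate positive control chromenyl benzoic acid corrector at 2 or 3 µM.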 It is filed as cell-based. Conditions: for Maximum % activity (with co-corrector) / Emax: maximum at any tested concentration; for Emax: read-out: Maximum % activity (without co-corrector). In short, it runs like this:
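Corrector compounds were given as 8-point 3-fold series from 20 or 30 μM, with or without a 2 μM co-corrector, for 18-24 h at 33 °C. Surface HRP was read by luminol luminescence as % of positive control; variable-Hill-slope sigmoidal fitting gave EC50 from triplicate plates.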

[1] abbreviates: test compound with co-corrector.
[2] abbreviates: test compound with co-corrector, read-out: EC50 (with co-corrector).
The mark [3] stands for this setting: test compound without co-corrector.
[4] abbreviates: test compound without co-corrector, read-out: EC50 (without co-corrector).

For the molecule `CC(C)Oc1ncc(N2CCCC2)cc1C1(C(=O)NS(=O)(=O)c2cccc3[nH]ccc23)CC1` [Example GI-64, N-(1H-indole-4-sulfonyl)-1-{2-[(propan-2-yl)oxy]-5-(pyrrolidin-1-yl)pyridin-3-yl}cyclopropane-1-carboxamide], under setting [1], the “Maximum % activity (with co-corrector)” value is listed as “+++ (≥350)”. Moreover, the pEC50 under setting [2] was more than 5.52 and the pEC50 under setting [4] is more than 5.52. For the same molecule, the Emax under setting [3] is more than 150%.
Turning to `CC(C)Oc1cnc(OC(C)C)c(C2(C(=O)NS(=O)(=O)c3cccc4ncccc34)CC2)c1` [Example GI-65, 1-{2,5-bis[(propan-2-yl)oxy]pyridin-3-yl}-N-(quinoline-5-sulfonyl)cyclopropane-1-carboxamide], the “Maximum % activity (with co-corrector)” value under setting [1] was “+++ (≥350)”. Further, the pEC50 reads like this: under setting [2], more than 5.52; under setting [4], more than 5.52. Further, under setting [3], the Emax is more than 150%.
Turning to `CC(C)Oc1cnc(OC(C)C)c(C2(C(=O)NS(=O)(=O)c3cccc4[nH]ccc34)CC2)c1` [Example GI-66, 1-{2,5-bis[(propan-2-yl)oxy]pyridin-3-yl}-N-(1H-indole-4-sulfonyl)cyclopropane-1-carboxamide], the “Maximum % activity (with co-corrector)” value under setting [1] was “+++ (≥350)”. In addition, the pEC50 under setting [2] was more than 5.52 and the negative logarithm of the EC50 (pEC50) under setting [4] was more than 5.52. For the same molecule, under setting [3], the Emax is more than 150%.
With `Cc1ccc2c(S(=O)(=O)NC(=O)C3(c4cc(OC(C)C)cnc4OC(C)C)CC3)cccc2n1` [Example GI-67, 1-{2,5-bis[(propan-2-yl)oxy]pyridin-3-yl}-N-(2-methylquinoline-5-sulfonyl)cyclopropane-1-carboxamide], under setting [1], the “Maximum % activity (with co-corrector)” value was “+++ (≥350)”. The pEC50 was more than 5.52 under setting [2] and 5.00 to 5.52 under setting [4]. Moreover, the Emax under setting [3] was more than 150%.
In the case of `CC(C)COc1ncc(N2CCCC2)cc1C1(C(=O)NS(=O)(=O)c2cccc3ncccc23)CC1` [Example GI-68, 1-[2-(2-methylpropoxy)-5-(pyrrolidin-1-yl)pyridin-3-yl]-N-(quinoline-5-sulfonyl)cyclopropane-1-carboxamide], the “Maximum % activity (with co-corrector)” value under setting [1] is recorded as “+++ (≥350)”. Besides, the pEC50 is, setting by setting: under setting [2], more than 5.52; under setting [4], more than 5.52. The Emax under setting [3] is more than 150%.
For `Cc1ccc2c(S(=O)(=O)NC(=O)C3(c4cc(N5CCCC5)cnc4OCC(C)C)CC3)cccc2n1` [Example GI-69, 1-[2-(2-methylpropoxy)-5-(pyrrolidin-1-yl)pyridin-3-yl]-N-(2-methylquinoline-5-sulfonyl)cyclopropane-1-carboxamide], the “Maximum % activity (with co-corrector)” value under setting [1] is reported as “+++ (≥350)”. Further, the pEC50 by setting is: under setting [2], more than 5.52; under setting [4], more than 5.52. The Emax under setting [3] is more than 150%.
In the case of `CC(C)COc1ncc(N2CCCC2)cc1C1(C(=O)NS(=O)(=O)c2cccc3[nH]ccc23)CC1` [Example GI-70, N-(1H-indole-4-sulfonyl)-1-[2-(2-methylpropoxy)-5-(pyrrolidin-1-yl)pyridin-3-yl]cyclopropane-1-carboxamide], under setting [1], the “Maximum % activity (with co-corrector)” value is on record as “+++ (≥350)”. The pEC50 was more than 5.52 under setting [2] and more than 5.52 under setting [4]. For the same molecule, under setting [3], the Emax was more than 150%.
Consider `CC(C)Oc1ncc(N(C)C)cc1C1(C(=O)NS(=O)(=O)c2cccc3ncccc23)CC1` [Example GI-71, 1-{5-(dimethylamino)-2-[(propan-2-yl)oxy]pyridin-3-yl}-N-(quinoline-5-sulfonyl)cyclopropane-1-carboxamide], for which the “Maximum % activity (with co-corrector)” value under setting [1] is recorded as “+++ (≥350)”. For the same molecule, the pEC50 runs as follows: under setting [2], more than 5.52; under setting [4], 5.00 to 5.52. For the same molecule, the Emax under setting [3] was more than 150%.
On to `CC(C)Oc1ncc(N(C)C)cc1C1(C(=O)NS(=O)(=O)c2cccc3[nH]ccc23)CC1` [Example GI-73, 1-{5-(dimethylamino)-2-[(propan-2-yl)oxy]pyridin-3-yl}-N-(1H-indole-4-sulfonyl)cyclopropane-1-carboxamide], for which, under setting [1], the “Maximum % activity (with co-corrector)” value is “+++ (≥350)”. Further, the pEC50 under setting [2] was more than 5.52 and the negative-log EC50 (pEC50) under setting [4] is 5.00 to 5.52. For the same molecule, the Emax under setting [3] was more than 150%.
On to `COc1cnc(OC(C)C)c(C2(C(=O)NS(=O)(=O)c3cccc4ncccc34)CC2)c1` [Example GI-74, 1-{5-methoxy-2-[(propan-2-yl)oxy]pyridin-3-yl}-N-(quinoline-5-sulfonyl)cyclopropane-1-carboxamide], for which the “Maximum % activity (with co-corrector)” value under setting [1] is “+++ (≥350)”. In addition, the negative-log EC50 (pEC50) under setting [2] was more than 5.52 and the pEC50 under setting [4] was 5.00 to 5.52. In addition, the Emax under setting [3] was more than 150%.
The like results for `COc1cnc(OC(C)C)c(C2(C(=O)NS(=O)(=O)c3cccc4[nH]ccc34)CC2)c1` [Example GI-75, N-(1H-indole-4-sulfonyl)-1-{5-methoxy-2-[(propan-2-yl)oxy]pyridin-3-yl}cyclopropane-1-carboxamide] were, in that order, “+++ (≥350)”, more than 5.52, 5.00 to 5.52 and more than 150%.
The like results for `COc1cnc(OC(C)C)c(C2(C(=O)NS(=O)(=O)c3cccc4nc(C)ccc34)CC2)c1` [Example GI-76, 1-{5-methoxy-2-[(propan-2-yl)oxy]pyridin-3-yl}-N-(2-methylquinoline-5-sulfonyl)cyclopropane-1-carboxamide] were, in that order, “+++ (≥350)”, more than 5.52, more than 5.52 and more than 150%.
Regarding `COc1cnc(OCC(C)C)c(C2(C(=O)NS(=O)(=O)c3cccc4ncccc34)CC2)c1` [Example GI-77, 1-[5-methoxy-2-(2-methylpropoxy)pyridin-3-yl]-N-(quinoline-5-sulfonyl)cyclopropane-1-carboxamide], the “Maximum % activity (with co-corrector)” value under setting [1] was “+++ (≥350)”. In addition, the pEC50 reads like this: under setting [2], more than 5.52; under setting [4], more than 5.52. Besides, the Emax under setting [3] is more than 150%.
Turning to `COc1cnc(OCC(C)C)c(C2(C(=O)NS(=O)(=O)c3cccc4[nH]ccc34)CC2)c1` [Example GI-78, N-(1H-indole-4-sulfonyl)-1-[5-methoxy-2-(2-methylpropoxy)pyridin-3-yl]cyclopropane-1-carboxamide], under setting [1], the “Maximum % activity (with co-corrector)” value is “+++ (≥350)”. Besides, the pEC50 under setting [2] was more than 5.52 and the negative logarithm of the EC50 (pEC50) under setting [4] was more than 5.52. Under setting [3], the Emax was more than 150%.
Regarding `COc1cnc(OCC(C)C)c(C2(C(=O)NS(=O)(=O)c3cccc4nc(C)ccc34)CC2)c1` [Example GI-79, 1-[5-methoxy-2-(2-methylpropoxy)pyridin-3-yl]-N-(2-methylquinoline-5-sulfonyl)cyclopropane-1-carboxamide], the “Maximum % activity (with co-corrector)” value under setting [1] is “+++ (≥350)”. In addition, the pEC50 is, setting by setting: under setting [2], more than 5.52; under setting [4], more than 5.52. Under setting [3], the Emax was more than 150%.
Consider `Cc1ccc(C2(C(=O)NS(=O)(=O)c3cccc4ncccc34)CC2)c(OC(C)C)n1` [Example GI-80, 1-{6-methyl-2-[(propan-2-yl)oxy]pyridin-3-yl}-N-(quinoline-5-sulfonyl)cyclopropane-1-carboxamide], for which the “Maximum % activity (with co-corrector)” value under setting [1] is reported as “+++ (≥350)”. Also, the pEC50 was more than 5.52 under setting [2] and more than 5.52 under setting [4]. Also, under setting [3], the Emax is more than 150%.
As for `Cc1ccc(C2(C(=O)NS(=O)(=O)c3cccc4nc(C)ccc34)CC2)c(OC(C)C)n1` [Example GI-81, 1-{6-methyl-2-[(propan-2-yl)oxy]pyridin-3-yl}-N-(2-methylquinoline-5-sulfonyl)cyclopropane-1-carboxamide], under setting [1], the “Maximum % activity (with co-corrector)” value is “+++ (≥350)”. Besides, the pEC50 is, setting by setting: under setting [2], more than 5.52; under setting [4], more than 5.52. Also, the Emax under setting [3] is more than 150%.
For the molecule `Cc1ccc(C2(C(=O)NS(=O)(=O)c3cccc4[nH]ccc34)CC2)c(OC(C)C)n1` [Example GI-82, N-(1H-indole-4-sulfonyl)-1-{6-methyl-2-[(propan-2-yl)oxy]pyridin-3-yl}cyclopropane-1-carboxamide], the “Maximum % activity (with co-corrector)” value under setting [1] is recorded as “+++ (≥350)”. Also, the negative logarithm of the EC50 (pEC50) is, setting by setting: under setting [2], more than 5.52; under setting [4], more than 5.52. Besides, under setting [3], the Emax was more than 150%.
Consider `CC(C)Oc1ncc(N2CCC2)cc1C1(C(=O)NS(=O)(=O)c2cccc3ncccc23)CC1` [Example GI-83, 1-{5-(azetidin-1-yl)-2-[(propan-2-yl)oxy]pyridin-3-yl}-N-(quinoline-5-sulfonyl)cyclopropane-1-carboxamide], for which the “Maximum % activity (with co-corrector)” value under setting [1] is on record as “+++ (≥350)”. Besides, the negative logarithm of the EC50 (pEC50) is, setting by setting: under setting [2], more than 5.52; under setting [4], 5.00 to 5.52. The Emax under setting [3] is more than 150%.
The like results for `Cc1ccc2c(S(=O)(=O)NC(=O)C3(c4cc(N5CCC5)cnc4OC(C)C)CC3)cccc2n1` [Example GI-84, 1-{5-(azetidin-1-yl)-2-[(propan-2-yl)oxy]pyridin-3-yl}-N-(2-methylquinoline-5-sulfonyl)cyclopropane-1-carboxamide] were, in that order, “+++ (≥350)”, more than 5.52, 5.00 to 5.52 and more than 150%.
The like results for `CC(C)Oc1ncc(N2CCC2)cc1C1(C(=O)NS(=O)(=O)c2cccc3[nH]ccc23)CC1` [Example GI-85, 1-{5-(azetidin-1-yl)-2-[(propan-2-yl)oxy]pyridin-3-yl}-N-(1H-indole-4-sulfonyl)cyclopropane-1-carboxamide] were, in that order, “+++ (≥350)”, more than 5.52, 5.00 to 5.52 and more than 150%.
The like results for `CC(C)COc1ccc(OC(C)C)c(C2(C(=O)NS(=O)(=O)c3cccc4ncccc34)CC2)n1` [Example GI-86, 1-{6-(2-methylpropoxy)-3-[(propan-2-yl)oxy]pyridin-2-yl}-N-(quinoline-5-sulfonyl)cyclopropane-1-carboxamide] were, in that order, “+++ (≥350)”, more than 5.52, more than 5.52 and more than 150%.
